Results reported in patent US7785705B2, “Flower thinning agent” (priority 2002, dated 2010).

How the values were obtained:
pear (Kosui) tree [1] = assay: Flower thinning effect on pear (Kosui) tree at low air temperature and bad weather; conditions: low air temperature at flowering, bad weather
Source text: Using a pear (Kosui) tree, flower thinning effect was confirmed. That is, using the aforementioned pear tree, the flower thinning agent of Example 1 was spread at a concentration indicated in Table 10 two times, at a flowering rate of 30% and 80%. In this respect, at the present experiment, an air temperature at flowering was low, and weather was bad. Therefore, a scatter in flowering was greater than usual. […] Treatment was every branch treatment, and the agent was spread with a back loading sprayer.
(§1) Assessment was expressed as a remaining fruit rate relative to the number of flowering. Regarding medicine damage, results of observation of a leaf state such as defoliation, discolored leaf and deformed leaf were expressed by the following five stages.
According to the same manner as that of Application Example 64 except that any of the flower thinning agents of Examples 4, 5, 7, 9, 15 and 21, and Comparative Examples 1, 4, 8 and 10 was used in place of the flower thinning agent of Example 1, an experiment was performed.
(§2) An effective ingredient concentration was based on a solid matter weight of a lime and sulfur agent.
(§3) An effective ingredient concentration was based on a solid matter weight of itaconic acid.
(§4) An effective ingredient concentration was based on a solid matter weight of high purity lecithin.
An effective ingredient concentration was based on a solid matter weight of calcium formate.

apple (Fuji) tree = assay: Flower thinning effect on apple (Fuji) tree, agent spread two times, one day and three days after full blooming of a central flower; format: in vivo
Source text: Using an apple (Fuji) tree, flower thinning effect was confirmed. […] Assessment was expressed by a remaining fruit rate regarding a central flower and a lateral flower.

pear (Kosui) tree [2] = assay: Flower thinning effect on pear (Kosui) tree, agent spread two times, at a flowering rate of 30% and 80%; format: in vivo
Source text: Using a pear (Kosui) tree, flower thinning effect was confirmed. That is, using the aforementioned pear tree, the flower thinning agent of Example 1 was spread at a concentration indicated in Table 6 two times, at a flowering rate of 30% and 80%. […] Treatment was every branch treatment, and the agent was spread with a back loading sprayer.
as §1, §2, §3, §4

grape (King Dela) tree = assay: Flower thinning effect on grape (King Dela) tree, agent spread two times, at a flowering rate of 30% and 80%; format: in vivo
Source text: Using a grape (King Dela) tree, flower thinning effect was confirmed.
Assessment was expressed as a remaining fruit rate regarding the number of flowering.

[3] = effective ingredient conc. 0.33%
[4] = effective ingredient conc. 1.00%

SMILES	Remaining fruit rate (%) (pear (Kosui) tree [1]; effective ingredient conc. 0.15%)	Remaining fruit rate (%) (pear (Kosui) tree [1]; effective ingredient conc. 0.45%)	Remaining fruit rate (%) (pear (Kosui) tree [1]; [3])	Remaining fruit rate (%) (pear (Kosui) tree [1]; [4])	Fruition rate (%) Central flower (apple (Fuji) tree; [3])	Fruition rate (%) Lateral flower (apple (Fuji) tree; [3])	Fruition rate (%) Central flower (apple (Fuji) tree; [4])	Fruition rate (%) Lateral flower (apple (Fuji) tree; [4])	Remaining fruit rate (%) (pear (Kosui) tree [2]; [3])	Remaining fruit rate (%) (pear (Kosui) tree [2]; [4])	Remaining fruit rate (%) (grape (King Dela) tree; [3])	Remaining fruit rate (%) (grape (King Dela) tree; [4])
O=C[O-].O=C[O-].[Ca+2] [calcium formate]	79.9%	72.3%										
C=C(CC(=O)O)C(=O)O [itaconic acid]			70.0%	63.9%	88.2%	57.9%	85.4%	50.3%	57.9%	53.3%	57.5%	53.0%
